This note sets out measurements from publication PMC10514301 (Signal Transduction and Targeted Therapy, 2023).

Series [1] has as its system HCoV-OC43. Kind of series: Median effect plots of individual drugs against HCoV-OC43 in RD cells. The series is classed as cell-based.
Series [2] has as its system HCoV-OC43. Kind of series: Antiviral activity against HCoV-OC43 in RD cells (qRT-PCR). The conditions noted are these: Betacoronavirus 1, OC43, RD, 48 h, read-out: EC50 mean ± sd, RD, OC43. The series is classed as cell-based. Background: Real-time PCR tracks product formation cycle by cycle.
In series [3] the test system is HCoV-OC43. Kind of series: Antiviral activity against HCoV-OC43 in Huh-7 cells (qRT-PCR). The format is cell-based. Particulars: Betacoronavirus 1, OC43, Huh-7, 48 h, read-out: EC50 mean ± sd, Huh-7, OC43.
For series [4], the system named is HCoV-229E. The experiment in a line: Antiviral activity against HCoV-229E in Huh-7 cells (qRT-PCR). The series is classed as cell-based. The conditions noted are these: Human coronavirus 229E, Huh-7, 48 h, read-out: EC50 mean ± sd, Huh-7, 229E.
Series [5] concerns HCoV-229E. The experiment in a line: Antiviral activity against HCoV-229E in MRC5 cells (qRT-PCR). The series is classed as cell-based. Particulars: Human coronavirus 229E, MRC5, 48 h, read-out: EC50 mean ± sd, MRC5, 229E.
The test system of series [6] is HCoV-OC43. The experiment in a line: In vivo efficacy against HCoV-OC43 in suckling mice. Details: species or system suckling Balb/c mice.
Series [7] in a line: Plasma pharmacokinetics after oral administration in C57BL/6J mice. Particulars: for decrease of plasma Cmax in the VV116-nirmatrelvir combination compared with the individual study / decrease of plasma exposure in the VV116-nirmatrelvir combination compared with the individual study: oral VV116 + nirmatrelvir + ritonavir 50 + 100 + 50 mg/kg. As to the method:
The PK studies were conducted at Suzhou HQ Bioscience Co., Ltd. Eighteen C57BL/6J mice (N = 6 for each group, male) were randomly divided into three groups, and fasted for 12 h before dosing. […] The vehicle for oral administration of the test compounds was 5% DMSO + 5% Solutol HS-15 + 5% PEG400 + 85% Saline. Blood sample (70 μL) was collected from the orbit of the first three mice in each group at 0.25, 1.0, 4.0, and 8.0 and the last three mice in each group at 0.5, 2.0, 6.0, and 24 h post-dosing. The sample was taken into EDTA-K2 tubes, and centrifuged at 11,000 rpm for 5 min. The plasma was separated and frozen in a refrigerator at −70 °C for testing. The operation was conducted under an ice water bath. The concentration of analyte in plasma was determined by LC–MS/MS.

Another series is described as follows: Cytotoxicity in RD cells. The series is classed as cell-based. Particulars: human.
Where [8] appears, read: Betacoronavirus 1, read-out: IC50 (drug concentration that inhibit 50% viral replication), HCoV-OC43, RD cells, MOI 0.1, 48 hpi, median effect plot.
The mark [9] stands for this setting: Betacoronavirus 1, OC43, RD, read-out: IC50 (drug concentration that inhibit 50% viral replication).
Setting [10] is: male, C57BL/6J, mouse, plasma, po, 50 mg/kg.

Each structure is given as a SMILES string. Where “and” joins values, the source holds several entries; their conditions need not be identical. Equal values may be shown once. Read-outs that look alike come from different tables or passages of the source.

As for `CC(C)(C)NC(=O)N[C@H](C(=O)N1C[C@H]2[C@@H]([C@H]1C(=O)NC(CC1CCC1)C(=O)C(N)=O)C2(C)C)C(C)(C)C` (some centres unmarked) [Boceprevir, boceprevir], the IC50 with HCoV-OC43 [1] (setting [8]) was determined as 26900 nM. The “slope steepness (m) of the dose-response curve” value (from here on “slope steepness (m)”) with HCoV-OC43 [1] (OC43) is listed as 11.2.
Turning to `N#C[C@@]1(c2ccc3c(N)ncnn23)O[C@H](CO)[C@@H](O)[C@H]1O` [GS-441524], the EC50 is 460 ± 79 nM in the series with HCoV-OC43 [2], 1400 ± 55 nM with HCoV-OC43 [3], 560 ± 82 nM in the series on HCoV-229E [4] and 30 ± 21 nM in the series on HCoV-229E [5].
Take `Cc1cccc(C)c1OCC(=O)N[C@@H](Cc1ccccc1)[C@@H](O)C[C@H](Cc1ccccc1)NC(=O)[C@H](C(C)C)N1CCCNC1=O` [Lopinavir, lopinavir]: the IC50 in the series with HCoV-OC43 [1] (setting [8]) turned out to be 1440 nM. Besides, the “slope steepness (m)” value in the series with HCoV-OC43 [1] (OC43) is on record as 1.94.
As for `O=c1nc(NO)ccn1[C@@H]1O[C@H](CO)[C@@H](O)[C@H]1O` [NHC, β-d-N4-hydroxycytidine], the “slope steepness (m)” value in the series with HCoV-OC43 [1] (HCoV-OC43, RD cells, MOI 0.1, 48 hpi, median effect plot) is reported as 2.80. Further, in the series on HCoV-OC43 [1] (read-out: IC50 (drug concentration that inhibit 50% viral replication), HCoV-OC43, RD cells, MOI 0.1, 48 hpi, median effect plot), the IC50 stood at 5680 nM.
`CC(C)(C)[C@H](NC(=O)C(F)(F)F)C(=O)N1C[C@H]2[C@@H]([C@H]1C(=O)N[C@H](C#N)C[C@@H]1CCNC1=O)C2(C)C` [Nirmatrelvir, nirmatrelvir]: the IC50 in the series with HCoV-OC43 [1] (setting [9]) stood at 121 nM. Also, the “slope steepness (m)” value in the series on HCoV-OC43 [1] (OC43) is recorded as 4.49. Moreover, the “viral loads (titers, immunoplaque assay) in organs” value in the series with HCoV-OC43 [6] (VV116 50 mpk, nirmatrelvir 10 and 20 mpk with ritonavir, the two combinations) is “less than the limit of detection (LOD)”. The “inflammation (cytokine gene expression) in the brain” value in the series on HCoV-OC43 [6] (VV116 50 mpk, nirmatrelvir 10 mpk, 25 mpk) is “dramatically reduced inflammation”. Further, in the series with HCoV-OC43 [6] (VV116 50 mpk, nirmatrelvir 10 mpk, 25 mpk, Combo 1, Combo 2), the “lung histopathology (hematoxylin and eosin)” value is on record as “significantly improved”. Also, in the series on HCoV-OC43 [6] (individual VV116 and nirmatrelvir treatments versus Combo 1 and Combo 2), the “inflammation suppression (cytokine gene expression), especially IL-6 in the lungs” value is on record as “limited inflammation suppression”. Also, the “viral copies in the brain” value with HCoV-OC43 [6] (oral once a day, VV116 25 and 50 mpk, nirmatrelvir 25 mpk with ritonavir 50 mpk) is given as “almost completely cleared”. Further, in series [7], the “decrease of plasma Cmax in the VV116-nirmatrelvir combination compared with the individual study” value was determined as 12.5% and the “decrease of plasma exposure in the VV116-nirmatrelvir combination compared with the individual study” value was 19.8%.
As to `Cc1cnc(C(=O)N[C@H]2CCCCC/C=C\[C@@H]3C[C@@]3(C(=O)NS(=O)(=O)C3CC3)NC(=O)[C@@H]3C[C@@H](Oc4nc5ccccc5c5ccccc45)CN3C2=O)cn1` [Paritaprevir, paritaprevir], in the series with HCoV-OC43 [1] (setting [8]), the IC50 worked out at 2500 nM. Besides, the “slope steepness (m)” value in the series on HCoV-OC43 [1] (OC43) is reported as 1.55.
As for `CCC(CC)COC(=O)[C@H](C)N[P@](=O)(OC[C@H]1O[C@@](C#N)(c2ccc3c(N)ncnn23)[C@H](O)[C@@H]1O)Oc1ccccc1` [RDV, remdesivir], the EC50 came out at 21 ± 35 nM with HCoV-OC43 [2] and 41 nM in the series with HCoV-229E [4]. This molecule also gave a CC50 in “Cytotoxicity in RD cells” of 1570 nM. In addition, the IC50 in the series on HCoV-OC43 [1] (setting [9]) was 20.2 nM. The “slope steepness (m)” value in the series on HCoV-OC43 [1] (OC43) stood at 2.40.
In the case of `NC(=O)c1ncn([C@@H]2O[C@H](CO)[C@@H](O)[C@H]2O)n1` [Ribavirin, ribavirin], the IC50 in the series on HCoV-OC43 [1] (setting [8]) was 49500 nM. Also, the “slope steepness (m)” value in the series with HCoV-OC43 [1] (OC43) amounted to 2.19.
As to `COc1ccc2c(O[C@@H]3C[C@H]4C(=O)N[C@]5(C(=O)NS(=O)(=O)C6CC6)C[C@H]5/C=C\CCCCN(C)C(=O)[C@@H]4C3)cc(-c3nc(C(C)C)cs3)nc2c1C` [Simeprevir, simeprevir], the IC50 in the series on HCoV-OC43 [1] (setting [8]) amounted to 2220 nM. Moreover, the “slope steepness (m)” value in the series with HCoV-OC43 [1] (OC43) came out at 2.18.
For the molecule `[2H]c1cc([C@]2(C#N)O[C@H](CO)[C@@H](O)[C@H]2O)n2ncnc(N)c12` [X1], the EC50 was 800 ± 420 nM in the series with HCoV-OC43 [2], 1100 ± 61 nM in the series with HCoV-OC43 [3], 570 ± 70 nM in the series with HCoV-229E [4] and 60 ± 160 nM in the series on HCoV-229E [5]. In addition, in series [7] (setting [10]), the AUC(0-t) turned out to be 19500 ng·h/mL. The Cmax in series [7] (setting [10]) is 10700 ng/mL and 36.6 µM. The “decrease of plasma Cmax in the VV116-nirmatrelvir combination compared with the individual study” value in series [7] is reported as 20.3%. Also, the “decrease of plasma exposure in the VV116-nirmatrelvir combination compared with the individual study” value in series [7] turned out to be 13.5%.

As usually defined, the EC50 is the midpoint of the concentration-response curve. As usually defined, the CC50 is the concentration giving 50% cytotoxicity. The low end stands for greater toxicity to the cells, the high end for lower toxicity to the cells. As usually defined, the AUC(0-t) is the area under the concentration-time curve up to a stated or last time point. A higher AUC(0-t) goes with high exposure. As usually defined, the Cmax is the maximum level reached in the sampled fluid or tissue.
